Source: US20220127568A1, “COMPOSITIONS AND METHODS FOR GENERATING HAIR CELLS BY INHIBITING EPIGENETIC TARGETS” (Frequency Therapeutics, Inc., priority 2019, published 2022)

Key:
DOT1L = DOT1L (Homo sapiens, UniProt Q8TEK3); settings: literature cell potency, DOT1L inhibitors; cited from earlier work
[1] = cited from earlier work
GSK-3 alpha = GSK-3 alpha (Homo sapiens, UniProt P49840); settings: Table 2; cited from earlier work
[2] = system: Lgr5 GFP+ cochlear progenitor cells; experiment: Lgr5+ Assay (Stem Cell Proliferation Assay); format: cell-based
KDM1 = settings: Table 9, first KDM data cell; read-out: Select KDM1; cited from earlier work
KDM7 = settings: Table 9; read-out: Select KDM7; cited from earlier work
KDM5 = settings: Table 9; read-out: Select KDM5; cited from earlier work
LSD1 = LSD1 (Homo sapiens, UniProt O60341); settings: literature cell potency, LSD1 inhibitors; cited from earlier work
[3] = system: Lgr5+ cochlear progenitor cells; experiment: Quantification of Lgr5+ cochlear progenitor cell proliferation, expansion and enrichment (3D Matrigel culture, Celigo imaging, GFP(+) cell area); format: cell-based, mouse
KDM1b = biological target: T1, KDM1b (Homo sapiens, UniProt Q8NB78); settings: Table 1; read-out: Select KDM1b; cited from earlier work
T1 sequence (Q8NB78 1-822): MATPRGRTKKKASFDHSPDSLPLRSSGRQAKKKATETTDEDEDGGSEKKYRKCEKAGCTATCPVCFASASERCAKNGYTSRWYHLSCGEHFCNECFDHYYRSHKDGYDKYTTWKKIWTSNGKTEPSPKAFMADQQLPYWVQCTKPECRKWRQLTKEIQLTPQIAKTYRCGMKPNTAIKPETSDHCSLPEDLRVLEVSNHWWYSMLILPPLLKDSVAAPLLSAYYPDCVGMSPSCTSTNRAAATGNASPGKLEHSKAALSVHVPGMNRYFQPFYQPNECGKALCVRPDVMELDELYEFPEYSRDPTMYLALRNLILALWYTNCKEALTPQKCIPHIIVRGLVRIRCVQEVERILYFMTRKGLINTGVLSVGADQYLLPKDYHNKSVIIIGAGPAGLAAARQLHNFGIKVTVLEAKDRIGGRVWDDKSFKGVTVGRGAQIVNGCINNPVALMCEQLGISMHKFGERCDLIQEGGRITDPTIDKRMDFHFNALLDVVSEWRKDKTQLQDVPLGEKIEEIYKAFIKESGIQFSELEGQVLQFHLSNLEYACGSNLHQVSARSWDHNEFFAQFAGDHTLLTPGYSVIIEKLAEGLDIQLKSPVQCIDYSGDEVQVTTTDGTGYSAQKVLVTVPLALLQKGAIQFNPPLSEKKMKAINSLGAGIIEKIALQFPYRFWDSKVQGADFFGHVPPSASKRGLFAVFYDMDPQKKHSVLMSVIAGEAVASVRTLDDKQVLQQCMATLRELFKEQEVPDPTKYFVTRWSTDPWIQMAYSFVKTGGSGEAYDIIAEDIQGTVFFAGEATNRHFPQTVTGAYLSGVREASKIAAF

Sequence of GSK-3 alpha (P49840 whole entry): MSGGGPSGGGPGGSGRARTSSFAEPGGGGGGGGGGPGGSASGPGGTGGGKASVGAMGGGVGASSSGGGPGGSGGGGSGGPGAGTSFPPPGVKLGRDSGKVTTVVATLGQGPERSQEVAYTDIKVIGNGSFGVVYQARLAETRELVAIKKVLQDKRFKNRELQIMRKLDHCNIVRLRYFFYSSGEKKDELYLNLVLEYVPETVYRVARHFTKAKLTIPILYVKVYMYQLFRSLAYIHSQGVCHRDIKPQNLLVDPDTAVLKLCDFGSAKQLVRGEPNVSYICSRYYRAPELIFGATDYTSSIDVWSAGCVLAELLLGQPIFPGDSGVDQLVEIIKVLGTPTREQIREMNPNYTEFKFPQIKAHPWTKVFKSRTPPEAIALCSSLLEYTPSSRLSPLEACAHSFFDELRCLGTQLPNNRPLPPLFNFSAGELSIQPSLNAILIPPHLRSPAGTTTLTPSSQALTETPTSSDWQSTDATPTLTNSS
Sequence of DOT1L (Q8TEK3 whole entry, species assumed): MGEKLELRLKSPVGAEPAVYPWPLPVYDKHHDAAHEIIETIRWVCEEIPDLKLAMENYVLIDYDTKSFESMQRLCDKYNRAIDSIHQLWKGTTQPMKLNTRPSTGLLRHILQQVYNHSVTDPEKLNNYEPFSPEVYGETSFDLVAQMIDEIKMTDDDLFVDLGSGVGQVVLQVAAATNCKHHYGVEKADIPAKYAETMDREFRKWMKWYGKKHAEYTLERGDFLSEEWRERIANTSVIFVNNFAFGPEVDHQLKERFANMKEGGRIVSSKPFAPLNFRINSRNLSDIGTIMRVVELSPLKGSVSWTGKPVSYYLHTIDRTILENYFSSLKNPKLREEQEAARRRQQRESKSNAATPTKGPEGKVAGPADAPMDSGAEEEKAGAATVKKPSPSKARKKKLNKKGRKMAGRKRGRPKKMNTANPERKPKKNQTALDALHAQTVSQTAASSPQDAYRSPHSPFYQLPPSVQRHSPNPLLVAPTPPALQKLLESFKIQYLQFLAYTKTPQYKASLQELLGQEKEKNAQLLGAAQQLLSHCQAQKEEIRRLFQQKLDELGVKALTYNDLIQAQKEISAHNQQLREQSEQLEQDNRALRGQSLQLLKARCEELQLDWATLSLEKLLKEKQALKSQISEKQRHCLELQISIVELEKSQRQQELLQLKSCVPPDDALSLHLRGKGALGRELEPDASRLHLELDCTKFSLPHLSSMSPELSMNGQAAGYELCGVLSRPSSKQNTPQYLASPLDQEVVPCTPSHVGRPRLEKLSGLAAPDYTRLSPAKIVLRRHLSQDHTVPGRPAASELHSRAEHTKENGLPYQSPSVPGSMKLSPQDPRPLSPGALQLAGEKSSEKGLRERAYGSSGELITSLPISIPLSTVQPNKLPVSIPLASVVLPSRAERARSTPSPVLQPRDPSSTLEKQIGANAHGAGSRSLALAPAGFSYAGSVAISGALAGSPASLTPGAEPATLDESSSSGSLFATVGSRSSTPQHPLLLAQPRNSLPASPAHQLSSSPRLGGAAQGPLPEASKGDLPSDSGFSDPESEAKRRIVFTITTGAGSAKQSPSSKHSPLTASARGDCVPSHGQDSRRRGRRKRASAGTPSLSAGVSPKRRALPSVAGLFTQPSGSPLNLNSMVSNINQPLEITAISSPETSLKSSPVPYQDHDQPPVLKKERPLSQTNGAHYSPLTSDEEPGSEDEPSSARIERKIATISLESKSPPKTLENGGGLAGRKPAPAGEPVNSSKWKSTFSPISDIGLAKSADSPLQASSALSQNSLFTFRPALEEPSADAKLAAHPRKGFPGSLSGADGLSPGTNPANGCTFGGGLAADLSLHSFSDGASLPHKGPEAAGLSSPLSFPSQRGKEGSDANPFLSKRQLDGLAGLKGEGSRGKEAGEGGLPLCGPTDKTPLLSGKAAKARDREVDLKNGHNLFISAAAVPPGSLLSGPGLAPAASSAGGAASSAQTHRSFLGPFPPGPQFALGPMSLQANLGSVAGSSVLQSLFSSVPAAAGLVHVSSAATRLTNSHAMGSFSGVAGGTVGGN

## CC(C)N(C[C@H]1O[C@@H](n2cnc3c(N)ncnc32)[C@H](O)[C@@H]1O)[C@H]1C[C@@H](CCc2nc3cc(C(C)(C)C)ccc3[nH]2)C1 [pinometostat]
DOT1L
  Lit Cell: 2.7 nM
[1]; DOT1L inhibitors
  Human In Vivo Conc: (1-10 uM) μM
[1]; total plasma Css
  Human In Vivo Conc: Total plasma Css: 800 to 1600 ng/mL
  Human In Vivo Conc: Total plasma Css (molar, in brackets): (1.42-2.94 uM)

## Cc1ccc(C(=O)Nc2c[nH]nc2C(=O)NCCCOC(C)C)cn1 [GSK XX1I]
GSK-3 alpha
  IC50: 2.3 nM
[2]; Wnt agonists (GSK3 inhibitors), active concentration range
  Lgr5+ Assay: 0.2 to 1 µM

## CN1CCN(C(=O)CN[C@@H]2C[C@H]2c2ccc(OCc3ccccc3)cc2)CC1 [Compound 1]
KDM1
  IC50: 220 nM
KDM7
  IC50: 220 nM
KDM5
  IC50: 190 nM

## N[C@H]1CC[C@H](N[C@@H]2C[C@H]2c2ccccc2)CC1 [ORY-1001]
LSD1
  Literat. Cell: 0.5 to 3 nM
[3]; inhibitor 41 nM with CHIR99021 (4 μM) and VPA (1 mM)
  Lgr5+ progenitor cell proliferation and enrichment: enhanced Lgr5+ progenitor cell proliferation and enrichment
[3]; inhibitor alone
  proliferation or enrichment of cochlear progenitor cells: does not promote the proliferation or enrichment
[2]; FIG. 6A: 0-30 μM ORY-1001 alone in EFI vs EFI-C, EFI-CV
  Lgr5 GFP(+) cell area: does not proliferate
[2]; FIG. 6B: 0-30 μM ORY-1001 alone in EFI vs EFI-C, EFI-CV
  Lgr5 GFP(+) cell area percentage: does not enrich
[2]; FIG. 7A: 41 nM ORY-1001 + 4 uM CHIR99021 + 1 mM VPA in EFI vs CHIR+VPA
  Lgr5 GFP(+) cell area: further enhances Lgr5 GFP+ progenitor cell proliferation
[2]; FIG. 7B: 41 nM ORY-1001 + 4 uM CHIR99021 + 1 mM VPA in EFI vs CHIR+VPA
  enrichment of Lgr5 GFP+ cells (y-axis: Lgr5 GFP(+) cell area): further enhances enrichment
KDM1b
  IC50: > 100000 nM
[1]; human plasma, LSD1 inhibitors
  Human Plasma Conc.: 1 to 100 nM
